Molecules are shown by their SMILES.

As usually defined, the IC50 is the concentration that inhibits the measured activity by half.

For the assay, the target named is T1, AR (Homo sapiens, UniProt P10275, T878A).
T1 construct: into the androgen-dependent PCa cells (LNCaP); endogenous in cells; host or cells: LNCaP-ARR2PB-eGFP
T1 sequence (P10275 1-920 T878A): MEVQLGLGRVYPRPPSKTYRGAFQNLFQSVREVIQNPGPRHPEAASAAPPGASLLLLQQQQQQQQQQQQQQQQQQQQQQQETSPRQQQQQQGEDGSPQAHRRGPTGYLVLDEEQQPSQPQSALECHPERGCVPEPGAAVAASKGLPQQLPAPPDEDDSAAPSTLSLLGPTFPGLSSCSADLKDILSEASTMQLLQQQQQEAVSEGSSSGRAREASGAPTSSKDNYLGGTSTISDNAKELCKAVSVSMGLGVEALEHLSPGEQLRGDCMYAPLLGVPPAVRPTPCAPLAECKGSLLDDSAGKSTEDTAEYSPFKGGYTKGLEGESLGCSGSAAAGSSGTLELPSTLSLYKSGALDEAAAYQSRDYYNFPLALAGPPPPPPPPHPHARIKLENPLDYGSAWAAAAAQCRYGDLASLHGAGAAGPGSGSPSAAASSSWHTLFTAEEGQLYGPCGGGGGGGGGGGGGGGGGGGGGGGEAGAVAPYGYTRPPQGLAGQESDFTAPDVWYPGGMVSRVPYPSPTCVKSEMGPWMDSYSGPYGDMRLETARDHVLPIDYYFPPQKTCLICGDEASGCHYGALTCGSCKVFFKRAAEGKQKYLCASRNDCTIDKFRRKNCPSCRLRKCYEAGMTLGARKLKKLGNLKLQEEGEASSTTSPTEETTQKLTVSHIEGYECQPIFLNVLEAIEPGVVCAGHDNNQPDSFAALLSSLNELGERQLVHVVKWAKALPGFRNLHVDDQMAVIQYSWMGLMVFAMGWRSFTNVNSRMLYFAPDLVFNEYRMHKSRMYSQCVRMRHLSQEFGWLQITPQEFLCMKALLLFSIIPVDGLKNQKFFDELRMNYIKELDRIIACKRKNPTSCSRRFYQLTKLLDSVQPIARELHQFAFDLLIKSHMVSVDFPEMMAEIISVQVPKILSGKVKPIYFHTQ
Nature of the assay: AR transcriptional activity, LNCaP-ARR2PB-eGFP reporter cells. The assay is classed as cell-based. The settings on record: read-out: IC50 AR transcriptional activities. From the text: Detection principles: We conducted a stable transfection of promoter ARR2PB known for its strong AR responsiveness, into the androgen-dependent PCa cells (LNCaP). The expression of enhanced green fluorescent protein (eGFP) is depending on the degree of activation of AR. Therefore, LNCaP-ARR2PB-eGFP cell line could quantitatively determine the AR antagonistic activities of the compounds by evaluating the expression of eGFP.
`CC(=O)Cc1nsc(NC(=O)c2cc(-c3ccc4ccccc4c3)oc2C)n1` [Compound A-12, 2-Methyl-5-(naphthalen-2-yl)-N-(3-(2-oxopropyl)-1,2,4-thiadiazol-5-yl)furan-3-carboxamide]: the IC50 turned out to be 3.17 µM.

Turning to `CCN(CC)Cc1nsc(NC(=O)c2cc(-c3cccc(OC(F)(F)F)c3)oc2C)n1` [Compound A-123, N-(3-((diethylamino)methyl)-1,2,4-thiadiazol-5-yl)-2-methyl-5-(3-(trifluoromethoxy)phenyl)furan-3-carboxamide], the IC50 turned out to be 0.59 µM. `Cc1oc(-c2cccc(C(F)(F)F)c2)cc1C(=O)Nc1nc(CCl)ns1` [Compound A-105, N-(3-(chloromethyl)-1,2,4-thiadiazol-5-yl)-2-methyl-5-(3-(trifluoromethyl)phenyl)furan-3-carboxamide]: the IC50 turned out to be 22.9 µM. The figure for `Cc1oc(C(=O)Nc2nc(CC(C)(O)C(F)(F)F)ns2)cc1-c1cccc(C(F)(F)F)c1` (stereo not shown) [Compound F-13, 5-Methyl-N-(3-(3,3,3-trifluoro-2-hydroxy-2-methylpropyl)-1,2,4-thiadiazol-5-yl)-4-(3-(tri-fluoromethyl)phenyl)furan-2-carboxamide] is 31.5 µM; for `Cc1oc(-c2cccc(C(F)(F)F)c2)cc1C(=O)Nc1nc(CC(C)N)ns1` (stereo not shown) [Compound A-66, N-(3-(2-aminopropyl)-1,2,4-thiadiazol-5-yl)-2-methyl-5-(3-(trifluoromethyl)phenyl)furan-3-carboxamide] it is 1.39 µM. Then `CC(=O)Cc1nsc(NC(=O)c2coc(-c3cccc(OC(F)(F)F)c3)c2)n1` [Compound B-4, N-(3-(2-oxopropyl)-1,2,4-thiadiazol-5-yl)-5-(3-(trifluoromethoxy)phenyl)furan-3-carboxamide], with 32.5 µM.

Turning to `Cc1sc(-c2cccc(OC(F)(F)F)c2)cc1C(=O)Nc1nc(CC(C)N2CCOCC2)ns1` (stereo not shown) [Compound C-17, 2-Methyl-N-(3-(2-morpholinopropyl)-1,2,4-thiadiazol-5-yl)-5-(3-(trifluoromethoxy)phenyl)thiophene-3-carboxamide], the IC50 came out at 6.17 µM. In the case of `Cc1sc(-c2cccc(OC(F)F)c2)cc1C(=O)Nc1nc(CN2CCN(C)CC2)ns1` [Compound C-58, 5-(3-(Difluoromethoxy)phenyl)-2-methyl-N-(3-((4-methylpiperazin-1-yl)methyl)-1,2,4-thiadiazol-5-yl)thiophene-3-carboxamide], the IC50 turned out to be 9.79 µM. `O=C(Nc1nc(CN2CCCCC2)ns1)c1coc(-c2cccc(OC(F)F)c2)c1` [Compound B-56, 5-(3-(Difluoromethoxy)phenyl)-N-(3-(piperidin-1-ylmethyl)-1,2,4-thiadiazol-5-yl)furan-3-carboxamide]: the half-maximal inhibitory concentration (IC50) was found to be 28.3 µM. Consider `COc1cccc(-c2cc(C(=O)Nc3nc(CC(C)N4CCCCC4)ns3)co2)c1` (stereo not shown) [Compound B-14, 5-(3-Methoxyphenyl)-N-(3-(2-(piperidin-1-yl)propyl)-1,2,4-thiadiazol-5-yl)furan-3-carboxamide], for which the half-inhibitory concentration (IC50) was found to be 33.6 µM. As to `CCN(CC)C(C)Cc1nsc(NC(=O)c2cc(-c3cccc(OC(F)F)c3)oc2C)n1` (stereo not shown) [Compound A-45, N-(3-(2-(diethylamino)propyl)-1,2,4-thiadiazol-5-yl)-5-(3-(difluoromethoxy)phenyl)-2-methylfuran-3-carboxamide], the IC50 was determined as 0.04 µM. On to `CC(Cc1nsc(NC(=O)c2coc(-c3cccc(C(F)(F)F)c3)c2)n1)=C(F)F` [Compound B-30, N-(3-(3,3-difluoro-2-methylallyl)-1,2,4-thiadiazol-5-yl)-5-(3-(trifluoromethyl)phenyl) furan-3-carboxamide], for which the IC50 was found to be 4.93 µM.

As for `CC(=O)Cc1nsc(NC(=O)c2coc(-c3cccc(OC(F)F)c3)c2)n1` [Compound B-5, 5-(3-(Difluoromethoxy)phenyl)-N-(3-(2-oxopropyl)-1,2,4-thiadiazol-5-yl)furan-3-carboxamide], the IC50 is 19.6 µM. Consider `Cc1oc(C(=O)Nc2nc(CC(C)N3CCCCC3)ns2)cc1-c1cccc(C#N)c1` (stereo not shown) [Compound F-7, 4-(3-Cyanophenyl)-5-methyl-N-(3-(2-(piperidin-1-yl)propyl)-1,2,4-thiadiazol-5-yl)furan-2-carboxamide], for which the IC50 was 14 µM. Then `CC(=O)Cc1nsc(NC(=O)c2cc(-c3cccc(F)c3)oc2C)n1` [Compound A-7, 5-(3-Fluorophenyl)-2-methyl-N-(3-(2-oxopropyl)-1,2,4-thiadiazol-5-yl)furan-3-carboxamide], with 1.16 µM; and `O=C(Nc1nc(CN2CCCCC2)ns1)c1cc(-c2cccc(OC(F)F)c2)oc1C(F)(F)F` [Compound E-41, 5-(3-(Difluoromethoxy)phenyl)-N-(3-(piperidin-1-ylmethyl)-1,2,4-thiadiazol-5-yl)-2-(trifluoromethyl)furan-3-carboxamide], with 0.89 µM.

Consider `Cc1oc(-c2cccc(C(F)(F)F)c2)cc1C(=O)Nc1nc(CC(C)N2CCN(C)CC2)ns1` (stereo not shown) [Compound A-43, 2-Methyl-N-(3-(2-(4-methylpiperazin-1-yl)propyl)-1,2,4-thiadiazol-5-yl)-5-(3-(trifluoro-methyl)phenyl)furan-3-carboxamide], for which the IC50 stood at 0.04 µM. In the case of `CC(F)(F)Cc1nsc(NC(=O)c2cc(-c3cccc(OC(F)(F)F)c3)co2)n1` [Compound G-17, N-(3-(2,2-difluoropropyl)-1,2,4-thiadiazol-5-yl)-4-(3-(trifluoromethoxy)phenyl)furan-2-carboxamide], the IC50 came out at 23 µM. In the case of `COc1cccc(-c2cc(C(=O)Nc3nc(CN4CCOCC4)ns3)c(C(F)(F)F)o2)c1` [Compound E-39, 5-(3-Methoxyphenyl)-N-(3-(morpholinomethyl)-1,2,4-thiadiazol-5-yl)-2-(trifluoromethyl)furan-3-carboxamide], the IC50 amounted to 2.19 µM. The figure for `CC(=O)Cc1nsc(NC(=O)c2csc(-c3cccc(C(F)(F)F)c3)c2)n1` [Compound D-1, N-(3-(2-oxopropyl)-1,2,4-thiadiazol-5-yl)-5-(3-(trifluoromethyl)phenyl)thiophene-3-carboxamide] is 25 µM; for `CC(=O)Cc1nsc(NC(=O)c2cc(-c3cccc(OC(F)(F)F)c3)c(C)o2)n1` [Compound F-4, 5-Methyl-N-(3-(2-oxopropyl)-1,2,4-thiadiazol-5-yl)-4-(3-(trifluoromethoxy)phenyl)furan-2-carboxamide] it is 35.7 µM.

Consider `CC(Cc1nsc(NC(=O)c2cc(-c3cccc(OC(F)(F)F)c3)co2)n1)N1CCN(C)CC1` (stereo not shown) [Compound G-9, N-(3-(2-(4-methylpiperazin-1-yl)propyl)-1,2,4-thiadiazol-5-yl)-4-(3-(trifluoromethoxy)phenyl)furan-2-carboxamide], for which the IC50 turned out to be 47.2 µM. The figure for `COc1cccc(-c2cc(C(=O)Nc3nc(CC(C)N4CCOCC4)ns3)oc2C)c1` (stereo not shown) [Compound F-8, 4-(3-Methoxyphenyl)-5-methyl-N-(3-(2-morpholinopropyl)-1,2,4-thiadiazol-5-yl)furan-2-carboxamide] is 17.6 µM.

As for `CC(=O)Cc1nsc(NC(=O)c2cc(-c3cccnc3)oc2C)n1` [Compound A-31, 2-Methyl-N-(3-(2-oxopropyl)-1,2,4-thiadiazol-5-yl)-5-(pyridin-3-yl)furan-3-carboxamide], the IC50 is 6.33 µM. Then `Cc1oc(-c2cccc(C(F)(F)F)c2)cc1C(=O)Nc1nc(CC(C)(C)O)ns1` [Compound A-90, N-(3-(2-hydroxy-2-methylpropyl)-1,2,4-thiadiazol-5-yl)-2-methyl-5-(3-(trifluoromethyl)phenyl)furan-3-carboxamide], with 0.05 µM; and `CC(=O)Cc1nsc(NC(=O)c2cc(-c3ccc(Cl)c(Cl)c3)oc2C)n1` [Compound A-10, 5-(3,4-Dichlorophenyl)-2-methyl-N-(3-(2-oxopropyl)-1,2,4-thiadiazol-5-yl)furan-3-carboxamide], with 1.24 µM; and `Cc1oc(C(=O)Nc2nc(CN3CCCC3)ns2)cc1-c1cccc(C(F)(F)F)c1` [Compound F-24, 5-Methyl-N-(3-(pyrrolidin-1-ylmethyl)-1,2,4-thiadiazol-5-yl)-4-(3-(trifluoromethyl)phenyl)furan-2-carboxamide], with 35.2 µM.

For the molecule `Cc1oc(-c2cccc(C(F)(F)F)c2)cc1C(=O)Nc1nc(CC(C)(C)N)ns1` [Compound A-93, N-(3-(2-amino-2-methylpropyl)-1,2,4-thiadiazol-5-yl)-2-methyl-5-(3-(trifluoromethyl)phenyl)furan-3-carboxamide], the IC50 stood at 0.03 µM.

(Values after patent publication US20240376091A1, “THIADIAZOLEAMIDE DERIVATIVES AND THEIR APPLICATIONS” (ZHEJIANG UNIVERSITY, priority 2021, published 2024).)
